{
  "source": "patent US9656962B2",
  "about": "“Ring-contracted morphinans and the use thereof” (Purdue Pharma L.P., priority 2013, dated 2017)",
  "key": {"μ-opioid receptor": {"biological_target": "μ-opioid receptor (Homo sapiens (Human), UniProt P35372)", "test": "μ-opioid receptor [35S]GTPγS functional assay, U-2 OS cells (Table 5)", "type": "biochemical", "conditions": "for Emax: relative to DAMGO; for EC50: μ GTP", "experimental": "μ-Opioid Receptor Functional Assay Procedures: [^35S]GTPγS functional assays were conducted using freshly thawed μ-receptor membranes prepared in-house from a cell line expressing recombinant μ opioid receptor in a HEK-293, CHO or U-2 OS cell background, or purchased from a commercial source (Perkin Elmer, Shelton, Conn.; or DiscovRx, Fremont, Calif.). Assay reactions were prepared by sequentially adding the following reagents to binding buffer (100 mM NaCl, 10 mM MgCl2, 20 mM HEPES, pH 7.4) on ice (final concentrations indicated): membrane protein (0.026 mg/mL), saponin ([…]), GDP ([…]) and [^35S]GTPγS (0.20 nM; Perkin Elmer, Shelton, Conn.). The prepared membrane solution (190 μl/well) was transferred to 96-shallow well polypropylene plates containing 10 μl of 20× concentrated stock solutions of the agonist [D-Ala^2, N-methyl-Phe^4 Gly-ol^5]-enkephalin (DAMGO) prepared in dimethyl sulfoxide (DMSO). Plates were incubated for 30 min at about 25° C. with shaking Reactions were terminated by rapid filtration onto 96-well Unifilter GF/B filter plates (Perkin Elmer, Shelton, Conn.) using a 96-well tissue harvester (Perkin Elmer, Shelton, Conn.) followed by three filtration washes with 200 μl of ice-cold wash buffer (10 mM NaH2PO4, 10 mM Na2HPO4, pH 7.4). Filter plates were subsequently dried at 50° C. for 2-3 hours. BetaScint scintillation cocktail (Perkin Elmer, Shelton, Conn.) was added (50 μl/well) and plates were counted using a Packard Top-Count for 1 min/well. Data were analyzed using the sigmoidal dose-response curve fitting functions in GraphPad PRISM v. 3.0, or an in-house function for non-linear, sigmoidal dose-response curve-fitting. [^35S]GTPγS functional assays can also be conducted using freshly thawed μ-receptor membranes prepared from a cell line expressing recombinant μ opioid receptor in a CHO-K1 cell background.\nμ GTP Emax (%) is the maximal effect elicited by a compound relative to the effect elicited by DAMGO, a standard μ agonist."}, "κ-opioid receptor": {"biological_target": "κ-opioid receptor (Homo sapiens (Human), UniProt P41145)", "test": "κ-opioid receptor [35S]GTPγS functional assay, U-2 OS cells (Table 5)", "type": "biochemical", "conditions": "for Emax: relative to U69,593; for EC50: κ GTP", "experimental": "κ-Opioid Receptor Functional Assay Procedures: Functional [^35S]GTPγS binding assays were conducted as follows. κ opioid receptor membrane solution was prepared by sequentially adding final concentrations of 0.026 μg/μl κ membrane protein (in-house), 10 μg/mL saponin, 3 μM GDP and 0.20 nM [^35S]GTPγS to binding buffer (100 mM NaCl, 10 mM MgCl2, 20 mM HEPES, pH 7.4) on ice. The prepared membrane solution (190 μl/well) was transferred to 96-shallow well polypropylene plates containing 10 μl of 20× concentrated stock solutions of agonist prepared in DMSO. Plates were incubated for 30 min at a temperature of about 25° C. with shaking. Reactions were terminated by rapid filtration onto 96-well Unifilter GF/B filter plates (Perkin Elmer, Shelton, Conn.) using a 96-well tissue harvester (Packard) and followed by three filtration washes with 200 μl ice-cold binding buffer (10 mM NaH2PO4, 10 mM Na2HPO4, pH 7.4). Filter plates were subsequently dried at 50° C. for 2-3 hours. Fifty μl/well scintillation cocktail (Perkin Elmer, Shelton, Conn.) was added and plates were counted in a Packard Top-Count for 1 min/well.\nκ GTP Emax (%) is the maximal effect elicited by a compound relative to the effect elicited by U69,593.\nThe following TABLE 5 provides results on the activity response of certain Compounds of the Invention at the μ- and κ-opioid receptors determined as described above using U-2 OS cells."}},
  "data": [
    {"smiles": "COc1ccc2c(c1)[C@]13CCN(CC4CC4)[C@H](C2)[C@]1(O)C[C@@H](C#N)C3", "note": "[Compound 26, (2S,3aS,4R,9bS)-12-(cyclopropylmethyl)-3a-hydroxy-8-methoxy-1,2,3,3a,4,5-hexahydro-4,9b-(epiminoethano)-cyclopenta[a]naphthalene-2-carbonitrile]", "values": [
      {"measurement": "Emax", "setting": "μ-opioid receptor", "result": "63 ± 5.77", "unit": "%"},
      {"measurement": "EC50", "setting": "μ-opioid receptor", "result": "1.13 ± 0.117", "unit": "µM"},
      {"measurement": "Emax", "setting": "κ-opioid receptor", "result": "106 ± 2.03", "unit": "%"},
      {"measurement": "EC50", "setting": "κ-opioid receptor", "result": "829 ± 100", "unit": "nM"}
    ]},
    {"smiles": "O=C([C@@H]1C[C@]23CCN(CC4CC4)[C@H](Cc4ccc(O)cc42)[C@]3(O)C1)N1CCOCC1", "note": "[Compound 58, ((2R,3aS,4R,9bS)-12-(cyclopropylmethyl)-3a,8-dihydroxy-1,2,3,3a,4,5-hexahydro-4,9b-(epiminoethano)cyclopenta-[a]naphthalen-2-yl)(morpholino)-methanone]", "values": [
      {"measurement": "Emax", "setting": "μ-opioid receptor", "result": "21.7 ± 5.49", "unit": "%"},
      {"measurement": "EC50", "setting": "μ-opioid receptor", "result": "0.0143 ± 0.00543", "unit": "µM"},
      {"measurement": "Emax", "setting": "κ-opioid receptor", "result": "93.7 ± 4.48", "unit": "%"},
      {"measurement": "EC50", "setting": "κ-opioid receptor", "result": "24.3 ± 5.67", "unit": "nM"}
    ]},
    {"smiles": "CN(C)C(=O)[C@@H]1C[C@]23CCN(CC4CC4)[C@H](Cc4ccc(O)cc42)[C@]3(O)C1", "note": "[Compound 62, (2R,3aS,4R,9bS)-12-(cyclopropylmethyl)-3a,8-dihydroxy-N,N-dimethyl-1,2,3,3a,4,5-hexahydro-4,9b-(epiminoethano)cyclo-penta[a]naphthalene-2-carboxamide]", "values": [
      {"measurement": "Emax", "setting": "μ-opioid receptor", "result": "25 ± 0.58", "unit": "%"},
      {"measurement": "EC50", "setting": "μ-opioid receptor", "result": "0.017 ± 0.00331", "unit": "µM"},
      {"measurement": "Emax", "setting": "κ-opioid receptor", "result": "109 ± 3.67", "unit": "%"},
      {"measurement": "EC50", "setting": "κ-opioid receptor", "result": "23.6 ± 1.09", "unit": "nM"}
    ]},
    {"smiles": "NC(=O)[C@H]1C[C@]23CCN(CC(F)(F)F)[C@H](Cc4ccc(O)cc42)[C@]3(O)C1", "note": "[Compound 76, (2S,3aS,4R,9bS)-3a,8-dihydroxy-12-(2,2,2-trifluoroethyl)-1,2,3,3a,4,5-hexahydro-4,9b-(epiminoethano)cyclo-penta[a]naphthalene-2-carboxamide]", "values": [
      {"measurement": "Emax", "setting": "μ-opioid receptor", "result": 2, "unit": "%"},
      {"measurement": "EC50", "setting": "μ-opioid receptor; bound given in μM", "result": "> 20", "unit": "µM"},
      {"measurement": "Emax", "setting": "κ-opioid receptor", "result": "81 ± 6.66", "unit": "%"},
      {"measurement": "EC50", "setting": "κ-opioid receptor", "result": "923 ± 31.9", "unit": "nM"}
    ]},
    {"smiles": "O=C([C@@H]1C[C@]23CCN(CC4CC4)[C@H](Cc4ccc(O)cc42)[C@]3(O)C1)N1CCCCC1", "note": "[Compound 56, ((2R,3aS,4R,9bS)-12-(cyclopropylmethyl)-3a,8-dihydroxy-1,2,3,3a,4,5-hexahydro-4,9b-(epiminoethano)cyclopenta-[a]naphthalen-2-yl)(piperidin-1-yl)methanone]", "values": [
      {"measurement": "Emax", "setting": "μ-opioid receptor", "result": "16 ± 1.53", "unit": "%"},
      {"measurement": "EC50", "setting": "μ-opioid receptor", "result": "0.0104 ± 0.00203", "unit": "µM"},
      {"measurement": "Emax", "setting": "κ-opioid receptor", "result": "97.8 ± 3.67", "unit": "%"},
      {"measurement": "EC50", "setting": "κ-opioid receptor", "result": "20.8 ± 1.79", "unit": "nM"}
    ]},
    {"smiles": "COc1ccc2c(c1)[C@]13CCN(CC4CC4)[C@H](C2)[C@]1(O)C[C@H](C(=O)N1CCCC1)C3", "note": "[Compound 19, ((2R,3aS,4R,9bS)-12-(cyclopropylmethyl)-3a-hydroxy-8-methoxy-1,2,3,3a,4,5-hexahydro-4,9b-(epiminoethano)cyclo-penta[a]naphthalene-2-yl)(pyrrolidin-1-yl)methanone]", "values": [
      {"measurement": "Emax", "setting": "μ-opioid receptor", "result": "29.3 ± 5.93", "unit": "%"},
      {"measurement": "EC50", "setting": "μ-opioid receptor", "result": "2.96 ± 0.864", "unit": "µM"},
      {"measurement": "Emax", "setting": "κ-opioid receptor", "result": "97.7 ± 0.67", "unit": "%"},
      {"measurement": "EC50", "setting": "κ-opioid receptor", "result": "4720 ± 150", "unit": "nM"}
    ]},
    {"smiles": "N[C@H]1CC23CCN(CC4CC4)[C@H](Cc4ccc(O)cc42)[C@]3(O)C1", "note": "(stereo in doubt) [Compound 29, (2S,3aS,4R,9bS)-2-amino-12-(cyclopropylmethyl)-1,2,3,3a,4,5-hexahydro-4,9b-(epiminoethano)-cyclopenta[a]naphthalene-3a,8-diol]", "values": [
      {"measurement": "Emax", "setting": "μ-opioid receptor", "result": "22 ± 1.73", "unit": "%"},
      {"measurement": "EC50", "setting": "μ-opioid receptor", "result": "0.00778 ± 0.00163", "unit": "µM"},
      {"measurement": "Emax", "setting": "κ-opioid receptor", "result": "107 ± 3.18", "unit": "%"},
      {"measurement": "EC50", "setting": "κ-opioid receptor", "result": "0.62 ± 0.04", "unit": "nM"}
    ]},
    {"smiles": "NC(=O)[C@@H]1C[C@]23CCN(CC(F)(F)F)[C@H](Cc4ccc(O)cc42)[C@]3(O)C1", "note": "[Compound 75, (2R,3aS,4R,9bS)-3a,8-dihydroxy-12-(2,2,2-tritluoroethyl)-1,2,3,3a,4,5-hexahydro-4,9b-(epiminoethano)cyclo-penta[a]naphthalene-2-carboxamide]", "values": [
      {"measurement": "Emax", "setting": "μ-opioid receptor", "result": 2, "unit": "%"},
      {"measurement": "EC50", "setting": "μ-opioid receptor; bound given in μM", "result": "> 20", "unit": "µM"},
      {"measurement": "Emax", "setting": "κ-opioid receptor", "result": "69 ± 6.03", "unit": "%"},
      {"measurement": "EC50", "setting": "κ-opioid receptor", "result": "1260 ± 74.6", "unit": "nM"}
    ]},
    {"smiles": "O=C(NCc1ccc(Cl)cc1Cl)[C@@H]1C[C@]23CCN(CC4CC4)[C@H](Cc4ccc(O)cc42)[C@]3(O)C1", "note": "[Compound 44, (2R,3aS,4R,9bS)-12-(cyclopropylmethyl)-N-(2,4-dichlorobenzyl)-3a,8-dihydroxy-1,2,3,3a,4,5-hexahydro-4,9b-(epimino-ethano)cyclopenta[a]naphthalene-2-carboxamide]", "values": [
      {"measurement": "Emax", "setting": "μ-opioid receptor", "result": "28.3 ± 1.86", "unit": "%"},
      {"measurement": "EC50", "setting": "μ-opioid receptor", "result": "0.00375 ± 0.00035", "unit": "µM"},
      {"measurement": "Emax", "setting": "κ-opioid receptor", "result": "94.7 ± 7.13", "unit": "%"},
      {"measurement": "EC50", "setting": "κ-opioid receptor", "result": "0.26 ± 0.033", "unit": "nM"}
    ]}
  ]
}
